Holding throughout (assay type): cell-based
For one experiment, the target named is Human mGlu2 (Homo sapiens, UniProt Q14416). The experiment is described as follows: mGlu receptor in vitro assay, human mGlu2.
A further experiment deals with T1, Rat mGlu3 (Rattus norvegicus, UniProt P31422).
T1 construct: expressed in transfected cells; host or cells: HEK-293 co-expressing GIRK channels
The experiment is described as follows: mGlu receptor in vitro assay (thallium flux through GIRK channels / calcium assay), rat mGlu3. Conditions: PAM potency with EC20 glutamate. The procedure, abridged:
(§1)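 HEK-293 cells co-expressing rat mGlu2 or mGlu3 and GIRK, dye-loaded with FluoZin2-AM, compound added about 2.5 min before thallium buffer with EC20 glutamate; potency from the 5-15 s fluorescence slope, 10-point 4-parameter fit. Calcium assay at mGlu3 used TREx293 mGlu3 Gα15 cells induced with tetracycline 20 ng/mL for 20 h.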

For another experiment, the target named is Human mGlu3 (Homo sapiens, UniProt Q14832). The experiment is described as follows: mGlu receptor in vitro assay, human mGlu3.
For the next experiment, the target named is T2, Rat mGlu2 (Rattus norvegicus, UniProt P31421).
T2 construct: expressed in transfected cells; host or cells: HEK-293 co-expressing GIRK channels
The experiment is described as follows: mGlu receptor in vitro assay, thallium flux through GIRK channels, rat mGlu2. The settings on record: PAM potency with EC20 glutamate. The procedure, abridged:
as §1

Each structure is given as a SMILES string.

T2 sequence (P31421 19-872): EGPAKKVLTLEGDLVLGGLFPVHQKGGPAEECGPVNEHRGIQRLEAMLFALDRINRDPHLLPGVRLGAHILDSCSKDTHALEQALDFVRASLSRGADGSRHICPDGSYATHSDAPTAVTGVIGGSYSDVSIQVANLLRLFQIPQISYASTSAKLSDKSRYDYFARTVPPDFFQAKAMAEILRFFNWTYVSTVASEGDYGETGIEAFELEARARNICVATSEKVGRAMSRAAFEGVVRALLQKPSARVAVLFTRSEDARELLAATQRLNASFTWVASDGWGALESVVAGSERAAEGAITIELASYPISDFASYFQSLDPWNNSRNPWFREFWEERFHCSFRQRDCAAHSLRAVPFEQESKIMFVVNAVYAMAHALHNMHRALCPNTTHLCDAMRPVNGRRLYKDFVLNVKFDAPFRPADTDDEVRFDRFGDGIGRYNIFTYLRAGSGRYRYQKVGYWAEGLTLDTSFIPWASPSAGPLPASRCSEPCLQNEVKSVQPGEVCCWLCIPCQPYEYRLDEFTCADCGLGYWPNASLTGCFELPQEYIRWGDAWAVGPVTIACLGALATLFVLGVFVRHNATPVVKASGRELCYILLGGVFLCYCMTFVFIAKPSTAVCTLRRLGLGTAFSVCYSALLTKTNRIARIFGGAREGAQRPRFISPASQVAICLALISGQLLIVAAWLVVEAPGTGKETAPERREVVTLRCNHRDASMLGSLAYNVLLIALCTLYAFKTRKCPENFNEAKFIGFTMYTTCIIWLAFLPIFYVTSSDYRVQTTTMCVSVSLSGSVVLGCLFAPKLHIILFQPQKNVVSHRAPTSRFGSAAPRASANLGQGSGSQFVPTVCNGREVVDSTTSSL
Human mGlu3, sequence (Q14832 23-879): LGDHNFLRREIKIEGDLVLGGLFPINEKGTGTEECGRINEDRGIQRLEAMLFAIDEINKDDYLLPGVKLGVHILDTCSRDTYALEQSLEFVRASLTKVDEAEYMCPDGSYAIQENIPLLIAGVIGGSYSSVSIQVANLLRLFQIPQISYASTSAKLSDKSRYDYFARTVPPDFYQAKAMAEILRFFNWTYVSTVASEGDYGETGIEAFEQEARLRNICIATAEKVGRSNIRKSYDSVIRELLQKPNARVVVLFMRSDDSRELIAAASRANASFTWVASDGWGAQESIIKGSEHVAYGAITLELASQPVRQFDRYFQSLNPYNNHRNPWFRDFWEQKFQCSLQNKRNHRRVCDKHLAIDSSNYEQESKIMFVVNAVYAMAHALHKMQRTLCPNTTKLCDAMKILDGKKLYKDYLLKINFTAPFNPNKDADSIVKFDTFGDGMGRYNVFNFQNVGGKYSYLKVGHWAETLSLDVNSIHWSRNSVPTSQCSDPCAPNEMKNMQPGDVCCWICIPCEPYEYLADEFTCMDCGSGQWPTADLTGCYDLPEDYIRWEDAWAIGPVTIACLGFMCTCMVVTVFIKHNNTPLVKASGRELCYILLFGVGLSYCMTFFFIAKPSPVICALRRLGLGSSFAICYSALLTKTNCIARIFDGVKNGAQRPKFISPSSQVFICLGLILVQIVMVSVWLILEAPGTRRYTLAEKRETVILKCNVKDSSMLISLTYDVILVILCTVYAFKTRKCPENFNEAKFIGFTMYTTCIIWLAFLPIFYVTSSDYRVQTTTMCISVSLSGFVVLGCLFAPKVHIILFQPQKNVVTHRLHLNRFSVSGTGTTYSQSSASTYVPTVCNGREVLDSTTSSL
T1 sequence (P31422 23-879): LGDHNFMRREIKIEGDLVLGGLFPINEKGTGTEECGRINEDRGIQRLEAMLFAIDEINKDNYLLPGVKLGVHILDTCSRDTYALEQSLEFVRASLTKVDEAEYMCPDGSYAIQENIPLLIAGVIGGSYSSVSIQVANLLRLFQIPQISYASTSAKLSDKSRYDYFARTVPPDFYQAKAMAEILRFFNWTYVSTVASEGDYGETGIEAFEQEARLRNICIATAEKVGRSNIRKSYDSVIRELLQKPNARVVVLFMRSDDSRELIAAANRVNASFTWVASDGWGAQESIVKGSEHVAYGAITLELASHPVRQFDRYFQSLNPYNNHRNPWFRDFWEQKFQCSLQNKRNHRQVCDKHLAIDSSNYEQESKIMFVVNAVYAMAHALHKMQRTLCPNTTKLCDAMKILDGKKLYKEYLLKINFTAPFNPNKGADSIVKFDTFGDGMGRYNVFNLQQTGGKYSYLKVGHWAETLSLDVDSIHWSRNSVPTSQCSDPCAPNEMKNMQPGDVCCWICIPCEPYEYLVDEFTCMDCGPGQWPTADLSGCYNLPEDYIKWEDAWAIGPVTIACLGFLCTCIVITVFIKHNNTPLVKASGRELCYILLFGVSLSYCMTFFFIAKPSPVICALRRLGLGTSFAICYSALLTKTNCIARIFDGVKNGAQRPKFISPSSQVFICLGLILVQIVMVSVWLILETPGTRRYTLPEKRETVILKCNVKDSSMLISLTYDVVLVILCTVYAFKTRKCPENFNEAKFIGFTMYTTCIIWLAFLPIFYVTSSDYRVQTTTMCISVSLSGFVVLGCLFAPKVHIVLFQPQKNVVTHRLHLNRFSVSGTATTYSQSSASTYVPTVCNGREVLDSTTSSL
Human mGlu2, sequence (Q14416 19-872): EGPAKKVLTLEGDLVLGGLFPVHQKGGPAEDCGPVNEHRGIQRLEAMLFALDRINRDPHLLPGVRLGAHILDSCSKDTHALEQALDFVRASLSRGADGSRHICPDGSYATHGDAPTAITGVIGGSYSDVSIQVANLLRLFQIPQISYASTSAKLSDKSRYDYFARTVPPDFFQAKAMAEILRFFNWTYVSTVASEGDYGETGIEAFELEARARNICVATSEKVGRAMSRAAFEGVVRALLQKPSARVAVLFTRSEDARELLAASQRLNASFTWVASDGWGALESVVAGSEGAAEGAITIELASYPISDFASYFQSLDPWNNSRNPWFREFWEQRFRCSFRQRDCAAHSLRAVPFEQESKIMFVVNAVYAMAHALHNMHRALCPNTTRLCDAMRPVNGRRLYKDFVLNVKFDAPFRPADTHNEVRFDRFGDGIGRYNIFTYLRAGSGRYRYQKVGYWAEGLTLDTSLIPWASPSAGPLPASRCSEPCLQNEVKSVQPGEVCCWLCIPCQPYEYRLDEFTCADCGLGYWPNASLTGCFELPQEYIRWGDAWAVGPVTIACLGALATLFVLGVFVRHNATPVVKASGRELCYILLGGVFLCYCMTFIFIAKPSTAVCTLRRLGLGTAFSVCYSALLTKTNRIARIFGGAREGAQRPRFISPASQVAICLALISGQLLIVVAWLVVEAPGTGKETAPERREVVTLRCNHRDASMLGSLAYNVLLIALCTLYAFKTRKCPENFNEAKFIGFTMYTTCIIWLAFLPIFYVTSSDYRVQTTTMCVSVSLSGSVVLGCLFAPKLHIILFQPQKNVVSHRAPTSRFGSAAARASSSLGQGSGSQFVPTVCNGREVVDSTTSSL

The EC50 is the concentration that produces a half-maximal response. Turning to `COc1ccc(C(=O)O)cc1OCCCCCOc1ccc(C(=O)CC(C)(C)C)c(O)c1C` [Example 11, 3-{5-[4-(3,3-Dimethylbutanoyl)-3-hydroxy-2-methylphenoxy]pentyloxy}-4-methoxybenzoic acid], the EC50 on Human mGlu2 came to 7 nM; at Rat mGlu3, 315 nM; on Human mGlu3 it was 126 nM; at Rat mGlu2, 35 nM.

On to `CCCC(=O)c1ccc(OCCSCCOc2cccc(C(=O)O)c2C)c(C)c1O` [Example 16, 3-{2-[2-(4-Butanoyl-3-hydroxy-2-methylphenoxy)ethylthio]ethoxy}-2-methylbenzoic acid], for which the EC50 is 28 nM on Human mGlu2, over 10000 nM at Rat mGlu3, over 30000 nM on Human mGlu3 and 56 nM at Rat mGlu2.

`CCCC(=O)c1ccc(OCc2nc(-c3cccc(C(=O)O)c3)no2)c(C)c1O` [compound 135, 3-(5-((4-Butyryl-3-hydroxy-2-methylphenoxy)methyl)-1,2,4-oxadiazol-3-yl)benzoic acid]: the EC50 on Human mGlu2 stood at 133 nM; on Rat mGlu3, 660 nM; on Human mGlu3, 748 nM; at Rat mGlu2, 106 nM.

On to `COc1ccc(C(=O)O)cc1C#CCCCOc1ccc(C(=O)CC(C)(C)C)c(O)c1C` [Example 2, 3-(5-(4-(3,3-Dimethylbutanoyl)-3-hydroxy-2-methylphenoxy)pent-1-yn-1-yl)-4-methoxybenzoic acid], for which the EC50 was found to be 144 nM at Human mGlu2, 91 nM on Rat mGlu3, 79 nM at Human mGlu3 and 456 nM at Rat mGlu2.

Regarding `CCCC(=O)c1ccc(OC/C=C/COc2cccc(C(=O)O)c2C)c(C)c1O` [Example 8, (E)-3-((4-(4-Butyryl-3-hydroxy-2-methylphenoxy)but-2-en-1-yl)oxy)-2-methylbenzoic acid], the EC50 came out at 10 nM at Human mGlu2, 489 nM on Rat mGlu3, 534 nM on Human mGlu3 and 19 nM on Rat mGlu2.

With `CCCC(=O)c1ccc(OCCSCCOc2ccc(C(=O)O)c(Cl)c2)c(C)c1O` [Example 42], the EC50 came to 28 nM at Human mGlu2, 552 nM on Rat mGlu3, 371 nM at Human mGlu3 and 27 nM on Rat mGlu2.

Consider `COc1c(C(=O)O)cccc1-c1cccc(COc2ccc(C(=O)CC(C)(C)C)c(O)c2C)c1` [compound 102, 3-(3-{[4-(3,3-Dimethylbutanoyl)-3-hydroxy-2-methylphenoxy]methyl}phenyl)-2-methoxybenzoic acid], for which the EC50 is 54 nM on Human mGlu2, 493 nM at Rat mGlu3, 159 nM on Human mGlu3 and 93 nM at Rat mGlu2.

As for `CCCC(=O)c1ccc(OCCCCCOc2ccc(C(=O)O)cc2OC)c(C)c1O` [Example 14, 4-[5-(4-Butanoyl-3-hydroxy-2-methylphenoxy)pentyloxy]-3-methoxybenzoic acid], the EC50 on Human mGlu2 is 9 nM; on Rat mGlu3, 2300 nM; on Human mGlu3, over 30000 nM; on Rat mGlu2, 16 nM.

For `CCCC(=O)c1ccc(OCCOCCOc2cccc(C(=O)O)c2C)c(C)c1O` [Example 7, 3-(2-(2-(4-Butyryl-3-hydroxy-2-methylphenoxy)ethoxy)ethoxy)-2-methylbenzoic acid], the EC50 at Human mGlu2 is 116 nM; on Rat mGlu3 it was over 30000 nM; on Human mGlu3 it was over 10000 nM; at Rat mGlu2, 158 nM.

On to `COc1ccc(C(=O)O)cc1OCCCCOc1ccc(C(=O)c2ccc(F)cc2)c(O)c1C` [compound 65, 3-(4-(4-(4-Fluorobenzoyl)-3-hydroxy-2-methylphenoxy)butoxy)-4-methoxybenzoic acid], for which the EC50 worked out at 143 nM at Human mGlu2, 3030 nM on Rat mGlu3, 342 nM on Human mGlu3 and 1150 nM on Rat mGlu2.

On to `COc1ccc(C(=O)O)cc1OCCSCCOc1ccc(C(=O)CC(C)(C)C)c(O)c1C` [Example 12, 3-(2-{2-[4-(3,3-Dimethylbutanoyl)-3-hydroxy-2-methylphenoxy]ethylthio}ethoxy)-4-methoxybenzoic acid], for which the EC50 at Human mGlu2 is 5 nM; on Rat mGlu3 it was 70 nM; at Human mGlu3, 15 nM; at Rat mGlu2, 23 nM.

As to `Cc1c(OCCCCCOc2ccc(C(=O)CC(C)(C)C)c(O)c2C)cccc1C(=O)O` [Example 17, 3-{5-[4-(3,3-Dimethylbutanoyl)-3-hydroxy-2-methylphenoxy]pentyloxy}-2-methylbenzoic acid], the EC50 at Human mGlu2 amounted to 153 nM; at Rat mGlu3, 1520 nM; at Human mGlu3 it was 768 nM; at Rat mGlu2 it was 355 nM.

In the case of `COC(=O)N(CCOc1cc(C(=O)O)ccc1OC)CCOc1ccc(C(=O)CC(C)(C)C)c(O)c1C` [Example 24, 3-[2-(N-{2-[4-(3,3-Dimethylbutanoyl)-3-hydroxy-2-methylphenoxy]ethyl}methoxycarbonylamino)ethoxy]-4-methoxybenzoic acid], the EC50 on Human mGlu2 was found to be 82 nM; on Rat mGlu3 it was 649 nM; at Human mGlu3, 462 nM; on Rat mGlu2, 176 nM.

Consider `CCCC(=O)c1ccc(OCCCCCOc2ccc(Cl)c(C(=O)O)c2)c(C)c1O` [Example 52, 5-[5-(4-Butanoyl-3-hydroxy-2-methylphenoxy)pentyloxy]-2-chlorobenzoic acid], for which the concentration giving a half-maximal response (EC50) at Human mGlu2 was 25 nM; on Rat mGlu3 it was over 30000 nM; on Human mGlu3 it was over 30000 nM; at Rat mGlu2 it was 36 nM.

Turning to `COc1ccc(C(=O)O)cc1OC/C=C/COc1ccc(C(=O)CC(C)(C)C)c(O)c1C` [Example 4, (E)-3-((4-(4-(3,3-Dimethylbutanoyl)-3-hydroxy-2-methylphenoxy)but-2-en-1-yl)oxy)-4-methoxybenzoic acid], the EC50 at Human mGlu2 was found to be 56 nM; on Rat mGlu3 it was 47 nM; on Human mGlu3, 61 nM; on Rat mGlu2, 67 nM.

For the compound `COc1ccc(C(=O)NC2CC2)cc1-c1cnc(COc2ccc(C(=O)CC(C)(C)C)c(O)c2C)cn1` [compound 127, N-Cyclopropyl-3-(5-((4-(3,3-dimethylbutanoyl)-3-hydroxy-2-methylphenoxy)methyl)pyrazin-2-yl)-4-methoxybenzamide], the EC50 is 189 nM on Human mGlu2, 134 nM at Rat mGlu3, 140 nM at Human mGlu3 and 373 nM on Rat mGlu2.

As for `CCCC(=O)c1ccc(OCc2cnc(-c3cccc(C(=O)O)c3OC)cn2)c(C)c1O` [compound 103, 3-{5-[(4-Butanoyl-3-hydroxy-2-methylphenoxy)methyl]pyrazin-2-yl}-2-methoxybenzoic acid], the EC50 on Human mGlu2 turned out to be 54 nM; at Rat mGlu3 it was 481 nM; at Human mGlu3, 375 nM; on Rat mGlu2 it was 198 nM.

Take `CCCC(=O)c1ccc(OCCC(C)(C)CCOc2cccc(C(=O)O)c2C)c(C)c1O` [Example 30, 3-[5-(4-Butanoyl-3-hydroxy-2-methylphenoxy)-3,3-dimethylpentyloxy]-2-methylbenzoic acid]: the EC50 at Human mGlu2 is 55 nM; on Rat mGlu3 it was over 10000 nM; on Human mGlu3, over 10000 nM; on Rat mGlu2, 265 nM.

As to `[2H]C([2H])(CCCC([2H])([2H])Oc1ccc(C(=O)CCC)c(O)c1C)Oc1ccc(C(=O)O)c(Cl)c1` [Example 53, 4-((5-(4-Butyryl-3-hydroxy-2-methylphenoxy)pentyl-1,1,5,5-d4)oxy)-2-chlorobenzoic acid], the EC50 turned out to be 6 nM on Human mGlu2, 920 nM on Rat mGlu3, 708 nM on Human mGlu3 and 19 nM at Rat mGlu2.

`Cc1c(OCCOCCOc2ccc(C(=O)CC(C)(C)C)c(O)c2C)cccc1C(=O)O` [Example 23, 3-(2-{2-[4-(3,3-Dimethylbutanoyl)-3-hydroxy-2-methylphenoxy]ethoxy}ethoxy)-2-methylbenzoic acid]: the EC50 on Human mGlu2 was found to be 45 nM; at Rat mGlu3 it was 491 nM; on Human mGlu3, 327 nM; at Rat mGlu2 it was 91 nM.

On to `Cc1c(OCCCCSc2cccc(C(=O)O)c2)ccc(C(=O)CC(C)C)c1O` [compound 81, 3-((4-(3-Hydroxy-2-methyl-4-(3-methylbutanoyl)phenoxy)butyl)thio)benzoic acid], for which the EC50 at Human mGlu2 is 163 nM; at Rat mGlu3, 1490 nM; on Human mGlu3 it was 966 nM; on Rat mGlu2, 326 nM.

Regarding `COc1cc(F)c(C(=O)O)cc1-c1cccc(COc2ccc(C(=O)CC(C)(C)C)c(O)c2C)c1` [Example 164, 3′-((4-(3,3-dimethylbutanoyl)-3-hydroxy-2-methylphenoxy)methyl)-4-fluoro-6-methoxy-[1,1′-biphenyl]-3-carboxylic acid], the EC50 on Human mGlu2 stood at 39 nM; on Rat mGlu3 it was 559 nM; on Human mGlu3 it was 242 nM; at Rat mGlu2, 110 nM.

As to `[2H]C([2H])(CCCC([2H])([2H])Oc1ccc(C(=O)CCC)c(O)c1C)Oc1cccc(C(=O)O)c1C` [Example 35], the EC50 on Human mGlu2 is 66 nM; on Rat mGlu3, over 10000 nM; at Human mGlu3, over 10000 nM; on Rat mGlu2, 174 nM.

On to `Cc1c(OCCCCOc2ccc(C(=O)O)c(F)c2)ccc(C(=O)CC(C)C)c1O` [compound 100, 2-Fluoro-4-{4-[3-hydroxy-2-methyl-4-(3-methylbutanoyl)phenoxy]butoxy}benzoic acid], for which the EC50 on Human mGlu2 worked out at 15 nM; at Rat mGlu3 it was 732 nM; at Human mGlu3, 773 nM; at Rat mGlu2 it was 79 nM.

`COc1ccc(C(=O)O)cc1OCCC(C)COc1ccc(C(=O)CC(C)(C)C)c(O)c1C` (stereo not shown) [Example 33, 3-{4-[4-(3,3-Dimethylbutanoyl)-3-hydroxy-2-methylphenoxy]-3-methylbutoxy}-4-methoxybenzoic acid]: the EC50 at Human mGlu2 is 132 nM; at Rat mGlu3 it was 197 nM; at Human mGlu3, 195 nM; on Rat mGlu2, 217 nM.
